Assays:
[1] = tested on: human Schwann cells (HSC); test: CCK8 metabolic activity of printed thin slabs, HSC in GMHA; type: cell-based; settings: 35% vs 0% IDX; 2.5% GMHA, 0.5% GelMA, 10 million/mL HSC; 7 days culture; n=6, p>0.1
Text: (§1) In order to verify IDX's biocompatibility with various biomaterials and cell types, we performed thin slab bioprinting using three commonly used formulas: human umbilical vein endothelial cells (HUVEC) in GelMA, human Schwann cells (HSC) in glycidyl methacrylate hyaluronic acid (GMHA), and C2C12 in alginate methacrylate (AlgMA). FIGS. 7A and 7B are plots of the refractive indices of these common bioinks at various biopolymer and IDX concentrations, respectively. Since the ideal IDX concentration range varies between 20% and 35%, we chose to compare 3D printed tissues in which 0% or 35% IDX was used. As will be apparent to those of skill in the art, other bioinks may be used including, but not limited to, multi-arm PEG (polyethylene glycol), Gel-NB (Gelatin-norbornene), Gel-SH (Gelatin-thiol), and combinations thereof, including HA-NB, HA-SH, etc. Furthermore, the sample cell types described herein are not intended to be limiting but were selected to evaluate the process's impact on viability of mammalian cells. Applications of the inventive approach go well beyond mammalian tissue/organ fabrication. […]
(§2) Cell viability in the printed thin slabs was quantified with Cell Counting Kit-8 (CCK-8, K1018, ApexBio). […] After incubation, 200 μL supernatant was collected from each sample and their OD at 450nm was measured with Tecan Infinite 200 pro.

[2] = tested on: HUVEC; test: RNA-seq of HUVECs in 3D-printed GelMA hydrogel (DESeq2, GSEA); type: cell-based, human
Text: (§3) The bioink used in HUVEC viability experiment (FIGS. 3A, 3D) consists of 5% GelMA, 0.6% LAP, 2 million/mL HUVEC cells, 0% or 35% IDX, and PBS as solvent. The bioink used in HSC viability experiment (FIG. 3B) consists of 2.5% GMHA, 0.5% GelMA, 0.6% LAP, 10 million/mL HSC cells, 0% or 35% IDX, and PBS as solvent. The bioink used in C2C12 viability experiment (FIG. 3C) consists of 1% AlgMA, 0.25% GelMA, 0.6% LAP, 10 million/mL C2C12 cells, 0% or 35% IDX, and PBS as solvent. The bioink used in HUVEC RNAseq experiment (FIG. 3G) consists of 5% GelMA, 0.6% LAP, 10 million/mL HUVEC cells, 0% or 35% IDX, and PBS as solvent.
This is especially important for vasculature-on-a-chip studies, where the metabolism and immune-regulation of the endothelium is of interest. […] Here, RNA-sequencing (RNA-seq) was performed to comprehensively investigate the potential changes caused by IDX exposure in the HUVECs in 3D-printed GelMA hydrogel.
Differential expression was first investigated with DESEQ2. […] To further evaluate the biological impact that IDX brought to the bioprinted vasculature, Gene Set Enrichment Analysis (GSEA) using the Molecular Signature Database (MSigDB) was used. […] The heme metabolism is believed to be a result of the oxidative stress induced by the IDX, and the enrichment in the complement system is potentially related to inflammatory responses. These findings correlate well with the clinically observed adverse effects and previous toxicological studies of IDX.
HUVECs were 3D printed in 250 μm slabs using GelMA bioink with 0% or 35% IDX. After 7 days of culture, the RNAs from the 3D printed slabs are extracted with TRIzol reagent (15596018, Ambion) followed by purification using spin column method with Direct-zol RNA Microprep (R2060, Zymo Research). The RNA quality evaluation and sequencing was performed by Novogen Inc. The sequencing data was analyzed with FastQC, trimmed with Trimmomatic, aligned with HISAT2, annotated with StringTie. Differential gene expression was analyzed with DESeq2. Gene set enrichment analysis was performed with GSEA_4.2.3 (Broad Institute). Network analysis was performed with Cytoscape 3.9.1 using the EnrichmentMap application.

[3] = tested on: HUVEC; test: Phalloidin cytoskeleton staining of printed HUVEC slabs; type: cell-based, human; settings: 0% vs 35% IDX, day 7
Text: (§4) In addition, live/dead staining was also used to characterize cell viability. HUVEC in GelMA bioink is printed as thin slabs with either 0% or 35% IDX. […] Furthermore, the cytoskeleton of HUVECs was stained using phalloidin to visualize the cells' morphology.

[4] = tested on: human umbilical vein endothelial cells (HUVEC); test: CCK8 metabolic activity of printed thin slabs, HUVEC in GelMA; type: cell-based; settings: 35% vs 0% IDX; 5% GelMA, 2 million/mL HUVEC; 7 days culture; n=6, p>0.1
Text: as §1, §2

[5] = tested on: HUVEC; test: Live/Dead staining of printed HUVEC thin slabs; type: cell-based; settings: HUVEC in GelMA thin slabs
Text: as §3, §4
The cell viability was also evaluated with Live/Dead staining. At designated time points, the slabs were washed with DPBS twice, incubated with 2 μM Calcein AM (C3099, Invitrogen) and 3 μM propidium iodide (P3566, Invitrogen) in the fresh culture media at their regular incubation condition for 30 min. After incubation, the slabs were washed with DPBS twice and imaged with Leica DMI6000B fluorescence microscope. The live cell percentage was counted using particle analysis tool in ImageJ.

[6] = Refractive index measurement at 405 nm; type: physicochemical
Procedure: Tests verified that IDX can effectively tune the refractive index by measuring the refractive index of bioinks comprising 5% GelMA and various concentrations of IDX at the working wavelength of the bioprinter (405 nm). For refractive index measurement, mixtures of 5% GelMA with 0%, 20%, 25%, 30%, or 35% IDX, and PBS as solvent were prepared. […] The refractive indices of bioinks comprising 5% GelMA and 0% IDX, as well as the as-purchased IDX solution (OptiPrep™, Sigma-Aldrich) which contains 60% IDX, are also plotted for reference.
The refractive index of bioink can be measured using a simple refractometer with a 405 nm laser. […] The converging beam enters the prism-sample interface at different angles, and total internal reflection (TIR) happens at some of these angles. The diverging beam exits the prism, is collimated by a lens, and collected by a camera. […] In order to accurately relate the TIR boundary position on the captured image to the actual reflecting angle, water and isopropanol, whose refractive index and thus TIR critical angles are known, were used to calibrate this relation.

[7] = Scattering properties of cell-laden bioink (Monte-Carlo with particle swarm optimization); type: physicochemical
Procedure: The scattering effect of the material is usually characterized by scattering coefficient, anisotropy, and reduced scattering coefficient. To further verify that a proper concentration of IDX can effectively reduce the bioinks' scattering effect, bioinks comprising 5% GelMA, 40 million/mL 293T cells, and various IDX concentrations (0%, 20%, 25%, 30%, or 35%) were prepared. An approach that combined Monte-Carlo simulation and particle swarm optimization algorithm was used to determine the bioink's scattering properties at the working wavelength of the bioprinter (405 nm). […] The bioink without refractive index tuning has a scattering coefficient of 11.76 mm^−1, and a reduced scattering coefficient of 0.164 mm^−1. […] By carefully tuning the concentration of contrast agent, scattering can potentially be further reduced.
We used a well-developed 3D Monte-Carlo method combined with a particle swarm optimization algorithm (57) to numerically calculate the scattering properties of the cell-laden bioinks. The total transmittance and total reflectance at 405 nm of the 1 mm thick bioink containing 40 million/mL cells were measured using a UV-Vis-NIR spectroscope (Perkin Elmer, Lambda 1050) with integrating sphere. The angular intensity distribution of the scattered light at 405 nm was measured with a simple optical goniometer type setup. Given arbitrary optical properties, the total transmittance, total reflectance, and angular distribution can be calculated by the Monte-Carlo method. We then used a particle swarm optimization algorithm on MATLAB (MathWorks, Natick MA) to acquire the optical properties which best fit the measured total transmittance, total reflectance, and angular distribution. FIG. 2E provides sample line graphs showing that the simulated angular distribution of the scattered light well fits the measurement values. Next, we used the acquired scattering coefficient and anisotropy to simulate the spatial distribution of light inside the bioink with Monte-Carlo method. This spatial distribution is also the point spread function of scattering.

[8] = tested on: C2C12; test: CCK8 metabolic activity of printed thin slabs, C2C12 in AlgMA; type: cell-based; settings: 35% vs 0% IDX; 1% AlgMA, 0.25% GelMA, 10 million/mL C2C12; 7 days culture; n=6, p>0.1
Text: as §1, §2

[9] = Brix refractometer measurement of 5% GelMA bioink with contrast agents; type: physicochemical; settings: 5% GelMA bioink, 0, 20, 30, 40, 50% w/v contrast agent
Procedure: FIGS. 14A and 14B plot the results of measurement using a Brix refractometer of 5% GelMA bioink with various concentrations (0, 20, 30, 40, 50% w/v) of the contrast agents ioversol and iohexol, respectively. For comparison, a 100% (w/v) sample of each contrast agent was also measured. Since this method measures the number of dissolved solids in a liquid based on its specific gravity, the units are in Brix %. FIGS. 14C and 14D show the Brix % data converted to refractive index.

[10] = 35% vs 0% IDX, 7 days after bioprinting, |log2FoldChange|>0.5849, p<0.05
[11] = bioink 5% GelMA, 40 million/mL 293T cells, 30% IDX, 405 nm

Row | Compound | effect on cells' metabolic activity (CCK8) compared to controls [1] | genes downregulated [2, 10] [genes] | genes significantly upregulated [2, 10] [genes] | principal component analysis clustering of samples ([2]; 35% vs 0% IDX, n=3) | curated collection gene sets downregulated ([2]; response to IDX exposure) [gene sets] | curated collection gene sets upregulated ([2]; response to IDX exposure) [gene sets] | ontology collection gene sets downregulated ([2]; response to IDX exposure) [gene set] | ontology collection gene sets upregulated ([2]; response to IDX exposure) [gene sets] | hallmark gene sets significantly enriched (GSEA) ([2]; samples printed with IDX bioink, FDR<25%, p<0.05) | cell morphology / endothelialization [3] | effect on cells' metabolic activity (CCK8) compared to controls [4] | cell viability (live cell percentage) ([5]; 0% or 35% IDX, Day 1, Day 3, Day 7) | difference in cell viability between 0% and 35% IDX ([5]; n=4, p>0.1 for all pairs) | refractive index of the bioink versus IDX concentration ([6]; 5% GelMA, IDX 20% to 35%, 405 nm) | refractive index ([6]; IDX solution) | reduction of scattering ([7]; 30% IDX vs bioink without refractive index tuning) | reduced scattering coefficient [7, 11] [mm^−1] | scattering coefficient [7, 11] [mm^−1] | effect on cells' metabolic activity (CCK8) compared to controls [8] | tuning of bioink refractive index [9]
1 | CC(=O)N(CC(O)CN(C(C)=O)c1c(I)c(C(=O)NCC(O)CO)c(I)c(C(=O)NCC(O)CO)c1I)c1c(I)c(C(=O)NCC(O)CO)c(I)c(C(=O)NCC(O)CO)c1I (centres unmarked) [IDX, iodixanol] | no statistically significant effect | 569 | 587 | did not cluster into two groups | 11 | 3 | 1 | 18 | xenobiotic metabolism, heme metabolism, and complement gene sets | no qualitative differences observed | no statistically significant effect | greater than 90% | No statistically significant difference | linearly increases | greater than 1.4 | approximately 10 fold | 0.014 | 1.377 | no statistically significant effect | 
2 | O=C(NCC(O)CO)c1c(I)c(C(=O)NCC(O)CO)c(I)c(N(CCO)C(=O)CO)c1I (centres unmarked) [ioversol] |  |  |  |  |  |  |  |  |  |  |  |  |  |  |  |  |  |  |  | can effectively tune its refractive index
